Entries after “also recorded” stand apart in the source; their conditions may differ.
How the values were obtained:
Type in all cases: cell-based, Candida albicans
[1] = system: C. albicans ATCC 10231 (strain A) biofilms; test: Biofilm disruption assay (XTT reduction)
Description: Biofilms are complex communities of one or more species of microorganisms encased in extracellular polymeric substances and attached to not only a solid surface but also to each other. Because of their complex, matrix-like nature, antifungal agents are often unable to reach the pathogens embedded in these networks. […] This increase reflected some resistance of Candida biofilms against the bishydrazone 17c.
Biofilm disruption assays were performed to assess the effectiveness of compound 17c against sessile yeast cells for two representative yeast strains, C. albicans ATCC 10231 (strain A) and C. albicans ATCC 64124 (strain B). VOR was used as a positive control. Biofilm assays were performed in 96-well plates using XTT [2,3-bis(2-methoxy-4-nitro-5-sulfophenyl)-2H-tetrazolium-5-carboxanilide] to measure the viability of the biofilm as previously described. An overnight culture of the yeast cells was grown at 35° C. in YPD medium with shaking at 200 rpm. The overnight culture was diluted in RPMI 1640 medium to an OD600 between 0.12 and 0.15 to make a working stock. The working stock was transferred to 96-well plates in 100 μL aliquots, leaving one column empty for the sterile controls. […] 80 μL of liquid from each well was transferred to new plates, which were then read for absorbance at 450 nm with a SpectraMax M5 plate reader (Molecular Devices, Sunnyvale, CA, USA). […]

[2] = system: C. albicans ATCC 10231 (strain A); test: Time-kill assay
Text: (§1) To determine the fungistatic or fungicidal nature of the compounds, time-kill assays were next performed over a 24-hour period with 4,4′-bis((E)-1-(2-(4-fluorophenyl)hydrazono)ethyl)-1,1′-biphenyl (17c).
(§2) Time-kill assays were used to assess the inhibitory efficiency of compound 17c against two yeast strains, C. albicans ATCC 10231 (strain A) and C. albicans ATCC 64124 (strain B). The protocol for time-kill assays followed methods previously described with minor modifications. Yeast cultures were grown overnight in YPD medium at 35° C. with shaking at 200 rpm. A working stock of fungal cells was made by diluting cultures in RPMI 1640 medium to an OD600 of 0.125 (˜1×10^6 CFU/mL). From the working stock, 100 μL of cells were added to 4.9 mL of RPMI 1640 medium in sterile culture tubes, making the starting fungal cell concentration […]. Compounds were then added to the fungal cells. […] The treated fungal cultures were incubated at 35° C. with 200 rpm shaking for 24 h. Samples were aliquoted from the different treatments at regular time points (0, 3, 6, 9, 12, and 24 h) and plated in duplicate. For each time point, cultures were vortexed, 100 μL of culture were aspirated, and 10-fold serial dilutions were made in sterile ddH2O. From the appropriate dilutions, 100 μL of fungal suspension was spread onto PDA plates and incubated at 35° C. for 48 h before colony were counted. At 24 h, 50 μL of 1 mM resazurin in PBS was added to the treatments and incubated at 35° C. with 200 rpm shaking for 2 h in the dark for visual inspection (FIGS. 5A-D). Experiments were performed in duplicate.

[3] = system: C. albicans ATCC 64124 (strain B); test: Time-kill assay
Text: as §1, §2

increase of SMIC values compared to planktonic MIC value [1]: 4- to 16 fold
Structure (SMILES): C/C(=N\Nc1ccc(F)cc1)c1ccc(-c2ccc(/C(C)=N/Nc3ccc(F)cc3)cc2)cc1 [Compound 17c, 4,4′-bis((E)-1-(2-(4-fluorophenyl)hydrazono)ethyl)-1,1′-biphenyl]
reduction in fungal growth compared with VOR ([2]; 17c at one-half of the MIC value versus VOR at the MIC value): greater reduction in fungal growth
fungistatic or fungicidal nature ([2]; 24-hour period, 0.5x, 1x, 2x MIC): fungistatic; also recorded: more fungistatic than the control drug VOR
reduction in fungal growth compared with VOR ([3]; 17c at equal to or one-half of the MIC value versus VOR at the MIC value): greater reduction in fungal growth
fungistatic or fungicidal nature ([3]; 24-hour period, up to twice its MIC value): fungistatic; also recorded: more fungistatic than the control drug VOR

— patent US11851391B2, “Antifungal compounds and methods of forming the same” (University of Kentucky Research Foundation, priority 2018, dated 2023)
